From ChEMBL document CHEMBL1201862, “PubChem BioAssay data set” (2004)
Blank lines part the entries; values can stand above or below the molecule they belong to. The source made the active and inactive calls.

Experiments:
[1] = biological target: Luciferin 4-monooxygenase (Photinus pyralis, UniProt P08659); test: inhibition of purified Photinus pyralis luciferase – biochemical, luminescence, dose response (AID 1891)
[2] = Luminescence Cell-Based Dose Confirmation HTS to Identify Inhibitors of Platelet Dense Granule Release. [Related pubchem assays: 1663 (Primary HTS), 1678 (Summary of Project)]; assay type: functional
[3] = P. falciparum Dd2 growth inhibitors, dose response, SYBR Green, cherry-picked samples (AID 1159567); assay type: functional, cell-based
[4] = biological target: T1, Corticotropin-releasing factor receptor 2/Corticotropin-releasing factor-binding protein (Homo sapiens, UniProt P24387+Q13324); test: Dose Response confirmation of uHTS hits for small molecule antagonists of the CRF-binding protein and CRF-R2 receptor complex.; assay type: functional; details: read-out: IC50_Mean
T1 sequence (Q13324 whole entry): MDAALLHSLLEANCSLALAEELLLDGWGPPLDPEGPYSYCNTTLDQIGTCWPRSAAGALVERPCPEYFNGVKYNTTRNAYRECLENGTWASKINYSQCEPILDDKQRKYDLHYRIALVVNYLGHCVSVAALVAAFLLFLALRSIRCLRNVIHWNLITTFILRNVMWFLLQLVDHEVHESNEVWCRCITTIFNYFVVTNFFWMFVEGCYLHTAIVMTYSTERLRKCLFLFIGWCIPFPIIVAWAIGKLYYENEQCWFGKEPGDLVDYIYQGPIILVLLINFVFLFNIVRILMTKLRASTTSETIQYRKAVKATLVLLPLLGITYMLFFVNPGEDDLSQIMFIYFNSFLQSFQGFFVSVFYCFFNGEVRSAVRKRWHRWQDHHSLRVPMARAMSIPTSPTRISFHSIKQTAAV
T1 sequence (P24387 whole entry): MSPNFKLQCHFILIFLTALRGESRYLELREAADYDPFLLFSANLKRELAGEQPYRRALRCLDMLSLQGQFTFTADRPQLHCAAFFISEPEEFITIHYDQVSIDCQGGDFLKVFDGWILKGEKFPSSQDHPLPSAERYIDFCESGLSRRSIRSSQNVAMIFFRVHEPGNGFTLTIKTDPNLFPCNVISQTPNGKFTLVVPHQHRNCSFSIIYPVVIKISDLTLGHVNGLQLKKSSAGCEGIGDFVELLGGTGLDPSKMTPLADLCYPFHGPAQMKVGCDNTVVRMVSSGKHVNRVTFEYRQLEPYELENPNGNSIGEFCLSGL

[5] = biological target: T1, Corticotropin-releasing factor receptor 2/Corticotropin-releasing factor-binding protein; test: activators of CRF receptor 2 with binding protein – uHTS hits, confirmation (AID 602473); assay type: functional; details: read-out: EC50_Mean
[6] = biological target: T2, Cytochrome P450 1A2 (Homo sapiens, UniProt P05177);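 note: PubChem cytochrome P450 panel assay, CYP1A2 panel member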
T2 sequence (P05177 whole entry): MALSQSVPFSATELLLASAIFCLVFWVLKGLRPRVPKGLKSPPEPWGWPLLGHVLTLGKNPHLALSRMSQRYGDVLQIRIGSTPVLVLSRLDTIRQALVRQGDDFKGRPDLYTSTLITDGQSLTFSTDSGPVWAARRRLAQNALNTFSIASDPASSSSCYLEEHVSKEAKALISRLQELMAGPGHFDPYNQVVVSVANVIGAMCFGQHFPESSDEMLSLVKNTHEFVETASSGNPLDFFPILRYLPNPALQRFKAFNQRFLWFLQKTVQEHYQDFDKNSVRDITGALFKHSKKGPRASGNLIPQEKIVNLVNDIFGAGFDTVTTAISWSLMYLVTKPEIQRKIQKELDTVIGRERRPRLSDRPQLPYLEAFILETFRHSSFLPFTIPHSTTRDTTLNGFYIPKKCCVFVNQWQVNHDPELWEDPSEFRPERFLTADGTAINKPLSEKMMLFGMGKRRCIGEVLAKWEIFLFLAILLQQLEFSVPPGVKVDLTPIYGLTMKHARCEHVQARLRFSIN

[7] = viability of PTEN-deleted HCT116 cells – cell-based, HCT116 PTEN knockout, dose response (AID 1047); assay type: functional;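 note: HCT116 colon tumor cells with PTEN knocked out; cells exposed to compound for 60 hours before readout; potency for loss of cell viability measured by luminescence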
[8] = viability of HCT116 lacking mutant beta-catenin – cell-based, human colon tumor, dose response (AID 1045); assay type: functional;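 note: HCT116 colon tumor cells with beta catenin knocked out; cells exposed to compound for 60 hours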
[9] = biological target: Cytochrome P450 2C19 (Homo sapiens, UniProt P33261); test: Cytochrome panel assay with activity outcomes. Panel member name: p450-cyp2c19 Compounds with AC50 equal or less than 10 uM are considered active; assay type: functional
Chain of Cytochrome P450 2C19 (P33261 whole entry): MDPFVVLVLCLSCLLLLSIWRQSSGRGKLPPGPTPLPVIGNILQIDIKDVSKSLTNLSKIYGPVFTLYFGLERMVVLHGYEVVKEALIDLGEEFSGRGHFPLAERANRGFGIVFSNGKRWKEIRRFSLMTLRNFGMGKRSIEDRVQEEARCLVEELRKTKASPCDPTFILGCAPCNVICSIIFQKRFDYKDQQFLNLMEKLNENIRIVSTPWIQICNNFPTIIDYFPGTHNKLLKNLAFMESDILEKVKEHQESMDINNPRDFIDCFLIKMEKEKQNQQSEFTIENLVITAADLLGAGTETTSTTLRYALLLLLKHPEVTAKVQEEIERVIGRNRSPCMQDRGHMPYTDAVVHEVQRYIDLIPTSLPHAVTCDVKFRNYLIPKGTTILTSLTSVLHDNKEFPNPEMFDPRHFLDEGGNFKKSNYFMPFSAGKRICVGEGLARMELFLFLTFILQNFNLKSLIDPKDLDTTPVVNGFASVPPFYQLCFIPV

[10] = biological target: Cytochrome P450 3A4 (Homo sapiens, UniProt P08684);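 note: CYP3A4 tested as one member of a cytochrome P450 panel screen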
Chain of Cytochrome P450 3A4 (P08684 whole entry): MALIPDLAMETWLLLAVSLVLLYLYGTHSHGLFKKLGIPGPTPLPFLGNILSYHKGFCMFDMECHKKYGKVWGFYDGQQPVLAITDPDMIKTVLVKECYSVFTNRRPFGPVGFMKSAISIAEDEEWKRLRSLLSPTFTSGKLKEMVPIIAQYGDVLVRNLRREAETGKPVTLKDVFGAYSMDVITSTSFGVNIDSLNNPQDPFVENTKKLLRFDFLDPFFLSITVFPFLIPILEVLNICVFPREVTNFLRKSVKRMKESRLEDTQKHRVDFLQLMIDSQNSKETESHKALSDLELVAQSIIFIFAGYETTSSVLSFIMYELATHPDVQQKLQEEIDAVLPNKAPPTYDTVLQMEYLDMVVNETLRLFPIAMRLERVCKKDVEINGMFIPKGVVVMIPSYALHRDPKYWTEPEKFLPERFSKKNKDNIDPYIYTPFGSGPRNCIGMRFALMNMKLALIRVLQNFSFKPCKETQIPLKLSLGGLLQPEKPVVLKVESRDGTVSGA

[11] = Luminescence Cell-Based Dose Retest to Confirm Inhibitors of Cancer Stem Cells. [Related pubchem assays (depositor defined):AID2717, AID2721]; assay type: functional; details: Homo sapiens
[12] = blockers of HIV-1 envelope-mediated cell-cell fusion – cherry-pick, dose response (AID 652057); assay type: functional, cell-based
[13] = HIV-1 AD8 envelope cell-cell fusion blockers – cherry-pick, dose response (AID 652062); assay type: functional, cell-based;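 note: luciferase signal from cell-cell fusion driven by HIV-1 clade B AD8 Env; potency is for inhibitors of fusion seen as a drop in luminescence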

Chain of Luciferin 4-monooxygenase (P08659 whole entry): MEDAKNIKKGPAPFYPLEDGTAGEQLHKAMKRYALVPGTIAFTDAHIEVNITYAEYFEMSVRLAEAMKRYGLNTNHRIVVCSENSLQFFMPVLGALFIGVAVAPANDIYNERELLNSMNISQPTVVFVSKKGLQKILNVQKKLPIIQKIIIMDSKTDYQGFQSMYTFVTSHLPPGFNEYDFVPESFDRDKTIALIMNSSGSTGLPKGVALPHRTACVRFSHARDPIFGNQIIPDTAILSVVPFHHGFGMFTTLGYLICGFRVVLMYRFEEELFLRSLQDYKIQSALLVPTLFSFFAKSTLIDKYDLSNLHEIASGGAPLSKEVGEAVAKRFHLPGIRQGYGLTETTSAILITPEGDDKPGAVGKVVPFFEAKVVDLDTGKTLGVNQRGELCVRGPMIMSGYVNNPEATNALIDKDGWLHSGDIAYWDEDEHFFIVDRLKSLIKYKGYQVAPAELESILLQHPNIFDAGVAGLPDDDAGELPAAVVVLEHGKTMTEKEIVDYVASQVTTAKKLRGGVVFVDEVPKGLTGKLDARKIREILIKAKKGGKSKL

SMILES: Cc1ccc2oc(-c3cccc(NC(=O)C4CCCO4)c3)nc2c1 (stereo unspecified)
EC50 [1]: 26.6 µM (active)
EC50 [2]: > 112 µM (not active)

SMILES: O=C1c2ccccc2C(Nc2ccc(Cl)cn2)N1c1ccccn1 (stereo unspecified)
EC50 [1]: > 112 µM (not active)
EC50 [2]: > 112 µM (not active)

SMILES: O=C(c1ccccc1F)N1CC(=O)N2[C@H](C1)[C@H](c1ccc(-c3ccccc3)cc1)[C@@H]2CO
AC50 [3]: 5.6 µM (active)

SMILES: N#Cc1ccccc1Sc1ccccc1N
IC50 [4]: > 47.1 µM (inactive)
EC50 [5]: > 53 µM (inactive)
AC50 [6]: 22.4 µM (inconclusive)

SMILES: O=C(NNC1=Nc2cccc3cccc1c23)c1ccccc1Br
EC50 [7]: 21.9 µM (active)
EC50 [8]: 20.8 µM (active)

SMILES: COc1ccccc1CNC(=O)C[C@H]1C[C@H]2c3cc(NC(=O)Cc4ccncc4)ccc3O[C@H]2[C@H](CO)O1
AC50 [3]: 5.4 µM (active)

SMILES: CC(C)Nc1nc(NC(C)(C)C)nc(Oc2ccc(=O)n(-c3ccccc3)n2)n1
EC50 [1]: > 112 µM (not active)
EC50 [2]: > 112 µM (not active)
AC50 [9]: inconclusive
AC50 [10]: 12.6 µM (inconclusive)

SMILES: CC(C)Oc1cccc(C(=O)NC(=S)Nc2ccccc2N2CCOCC2)c1
AC50 [11]: 4.53 µM (active)

SMILES: COc1ccc(C#Cc2ccc([C@@H]3[C@@H](CO)N4CCCCN(C(=O)Nc5ccccc5F)C[C@@H]34)cc2)cc1
AC50 [3]: 8.08 µM (active)

SMILES: COc1cccc(/C(O)=C/c2nc3ccc(C(=O)NCCc4ccc(Cl)cc4)cc3nc2O)c1
EC50 [7]: 4.26 µM (active)
EC50 [8]: 4.16 µM (active)
EC50 [5]: 5.02 µM (active)

SMILES: O=C(NCc1ccc2c(c1)OCO2)C1CCN(S(=O)(=O)c2ccc(F)cc2)CC1
EC50 [1]: > 112 µM (not active)
EC50 [2]: > 112 µM (not active)

SMILES: COC(=O)c1nn(-c2ccccc2)c(Sc2ccc(OC)cc2)c1/C=N/O
EC50 [1]: > 112 µM (not active)
EC50 [2]: 28.5 µM (active)

SMILES: Cc1ccc(S(=O)(=O)N(C)C[C@@H]2Oc3ccc(NC(=O)Nc4ccc5c(c4)OCO5)cc3C(=O)N([C@H](C)CO)C[C@@H]2C)cc1
AC50 [12]: 2.48 µM (active)
AC50 [13]: 5.55 µM (active)

SMILES: Cc1ccc(CNC(=O)CCS(=O)(=O)c2ccc(Br)s2)o1
EC50 [1]: > 112 µM (not active)
EC50 [2]: > 112 µM (not active)

SMILES: Cn1nnnc1SCC(=O)NC1CCCc2ccccc21 (stereo unspecified)
EC50 [1]: > 112 µM (not active)
EC50 [2]: > 112 µM (not active)

SMILES: CCOC(=O)c1cnc2c([N+](=O)[O-])cnn2c1C
EC50 [1]: > 112 µM (not active)
EC50 [2]: > 112 µM (not active)

SMILES: CCCCNCc1cc(Br)c(OCc2cccs2)c(OC)c1
EC50 [7]: 17 µM (active)
EC50 [8]: 16.6 µM (active)

IC50 [4]: > 47.1 µM (inactive)
EC50 [5]: > 53 µM (inactive)
SMILES: CCCCNC(=O)CCc1nc2cccnc2n1Cc1ccc(OC)cc1
